From patent publication US6506876B1, “LTA4 hydrolase inhibitor pharmaceutical compositions and methods of use” (G.D. Searle & Co., priority 1994, dated 2003) come the findings set out here.

For experiment [1], the system named is LTB4 production in mouse blood (LTA4 hydrolase). The experiment is described as follows: Ex vivo LTB4 production by calcium ionophore stimulated mouse blood after oral dosing. Format: in vivo. Particulars: read-out: Murine Ex Vivo LTB4 Inhibition % I LTB4; for inhibition in vivo at 50 mg/kg: 1 hour after administration of 50 mg/kg (*). On the procedure: Ex Vivo LTB4 and Thromboxane Production by Calcium Ionophore Stimulated Mouse Blood for LTA4 Hydrolase Inhibitor Activity
Leukotriene A4 hydrolase inhibitor compounds of the present invention were diluted to a predetermined concentration in phosphate buffered saline containing 2% DMSO and 1% Tween 80. The compounds were administered by oral gavage to adult male outbred mice weighing approximately 20-30 gm at a dose of 10 mg/kg body weight. (Compounds given at a dose of 50 mg/kg body weight are designtated in following Table by the symbol, *.) Sixty (60) minutes after administration of an LTA4 inhibitor compound of the invention, blood was collected (into heparin-containing tubes) from the retroorbital sinus. […] The mixture was incubated for 10 minutes at 37° C. in a humidified incubator. The reaction was terminated by centrifugation (833 g, 10 minutes at 4° C.). Supernatants were analyzed for LTB4 and thromboxane by commercially available enzyme-linked immunoassays (Caymen Chemical Co., Ann Arbor, Mich.] in accordance with the manufacturer's instructions. The percent inhibition was determined by comparison to animals treated identically except that the solution admininstered by oral gavage was devoid of inhibitor compound.

For experiment [2], the target named is T1, recombinant human LTA4 hydrolase (rhLTA4H) (Homo sapiens, UniProt P09960).
T1 sequence (P09960 1-611): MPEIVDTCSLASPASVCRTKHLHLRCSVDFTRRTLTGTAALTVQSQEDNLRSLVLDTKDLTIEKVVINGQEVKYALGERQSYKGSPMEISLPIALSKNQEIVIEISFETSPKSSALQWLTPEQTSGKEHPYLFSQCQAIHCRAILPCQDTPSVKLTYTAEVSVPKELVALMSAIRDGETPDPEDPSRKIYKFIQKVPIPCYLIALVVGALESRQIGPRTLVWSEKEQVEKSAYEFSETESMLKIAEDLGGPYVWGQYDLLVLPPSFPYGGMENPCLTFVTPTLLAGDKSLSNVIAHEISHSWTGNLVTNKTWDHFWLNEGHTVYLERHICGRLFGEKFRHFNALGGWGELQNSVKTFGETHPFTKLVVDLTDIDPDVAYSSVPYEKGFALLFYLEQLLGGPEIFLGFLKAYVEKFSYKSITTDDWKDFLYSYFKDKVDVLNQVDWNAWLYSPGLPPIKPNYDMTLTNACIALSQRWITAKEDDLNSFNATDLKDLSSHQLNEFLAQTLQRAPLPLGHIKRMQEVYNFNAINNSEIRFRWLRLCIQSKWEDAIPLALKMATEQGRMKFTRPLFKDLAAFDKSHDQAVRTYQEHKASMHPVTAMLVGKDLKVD
The experiment is described as follows: Recombinant human LTA4 hydrolase assay for LTA4 hydrolase inhibitor activity. Particulars: Recombinant Human LTA4 Hydrolase Assay IC50 LTA4H.

[3] abbreviates: mouse, oral gavage, 1 hour after administration of 10 mg/kg.

Read-outs that look alike come from different tables or passages of the source.

In the case of `C[C@H]1C[C@@H](O)CCN1CCOc1ccc(Cc2ccccc2)cc1` (relative stereo) [Example 465], the inhibition in vivo at 10 mg/kg in experiment [1] (setting [3]) amounted to 38%. In addition, the IC50 (in general, the concentration that gives 50% inhibition) in experiment [2] (recombinant hLTA4H) was found to be 0.3 µM.
For `CC(=O)N[C@@H]1CCN(CCOc2ccc(Cc3ccccc3)cc2)[C@@H](C)C1` (relative stereo) [Example 467], the inhibition in vivo at 10 mg/kg in experiment [1] (setting [3]) amounted to 71%. Further, the IC50 in experiment [2] (recombinant hLTA4H) is 0.06 µM.
Consider `c1ccc(Cc2ccc(OCCCn3cnc4ncccc43)cc2)cc1` [341 B], for which the inhibition in vivo at 10 mg/kg in experiment [1] (setting [3]) is 29%. In addition, in experiment [2] (recombinant hLTA4H), the IC50 was 0.14 µM.
In the same order, the values of `c1ccc(COc2ccc(OCCn3cnc4ncccc43)cc2)cc1` [346 B] are 23% and 1.9 µM.
Turning to `c1ccc(COc2ccc(OCCn3cnc4ccncc43)cc2)cc1` [347 A], in experiment [1] (setting [3]), the inhibition in vivo at 10 mg/kg was found to be 34%. In experiment [2] (recombinant hLTA4H), the IC50 was determined as 1.8 µM.
The corresponding values for `c1ccc(COc2ccc(OCCn3cnc4cnccc43)cc2)cc1` [347 B] are 43% and 1.9 µM.
The corresponding values for `c1ccc(COc2ccc(OCCn3ccc4ncnc-4c3)cc2)cc1` [347 C] are 52% and 0.005 µM.
In the same order, the values of `c1ccc(Oc2ccc(OCCn3cnc4cccnc43)cc2)cc1` [348 A] are 42% and 4.6 µM.
Turning to `c1ccc(Oc2ccc(OCCn3cnc4ncccc43)cc2)cc1` [348 B], the inhibition in vivo at 10 mg/kg in experiment [1] (setting [3]) turned out to be 22%. Besides, in experiment [2] (recombinant hLTA4H), the IC50 worked out at 0.44 µM.
The corresponding values for `c1ccc(Oc2ccc(OCCn3cccc4ncnc3-4)cc2)cc1` [348 C] are 77% and 0.29 µM.
In the same order, the values of `c1ccc(Oc2ccc(OCCn3cnc4ccncc43)cc2)cc1` [349 A] are 78.5% and 0.48 µM.
In the same order, the values of `c1ccc(Oc2ccc(OCCn3cnc4cnccc43)cc2)cc1` [349 B] are 48% and 0.3 µM.
`c1ccc(Oc2ccc(OCCn3ccc4ncnc-4c3)cc2)cc1` [349 C]: the inhibition in vivo at 10 mg/kg in experiment [1] (setting [3]) came to 52%. Further, the concentration for half-maximal inhibition (IC50) in experiment [2] (recombinant hLTA4H) stood at 0.013 µM.
The corresponding values for `c1ccc(Oc2ccc(OCCCn3cnc4ncccc43)cc2)cc1` [350 B] are 38% and 0.55 µM.
The corresponding values for `c1ccc(Oc2ccc(OCCCn3cccc4ncnc3-4)cc2)cc1` [350 C] are 35% and 0.62 µM.
As for `c1ccc(Oc2ccc(OCCCn3ccc4ncnc-4c3)cc2)cc1` [351 C], the inhibition in vivo at 10 mg/kg in experiment [1] (setting [3]) was 42%. Besides, the IC50 in experiment [2] (recombinant hLTA4H) came out at 0.043 µM.
In the same order, the values of `Fc1ccc(Oc2ccc(OCCn3cnc4ncccc43)cc2)cc1` [354 B] are 32% and 0.28 µM.
As for `Fc1ccc(Oc2ccc(OCCn3cccc4ncnc3-4)cc2)cc1` [354 C], the inhibition in vivo at 10 mg/kg in experiment [1] (setting [3]) amounted to 6%. For the same compound, the IC50 in experiment [2] (recombinant hLTA4H) came to 0.48 µM.
In the same order, the values of `Fc1ccc(Oc2ccc(OCCn3cnc4ccncc43)cc2)cc1` [355 A] are 44% and 1.37 µM.
In the same order, the values of `Fc1ccc(Oc2ccc(OCCn3cnc4cnccc43)cc2)cc1` [355 B] are 37% and 0.87 µM.
In the same order, the values of `Fc1ccc(Oc2ccc(OCCn3ccc4ncnc-4c3)cc2)cc1` [355 C] are 48% and 0.028 µM.
As to `c1ccc(Cc2ccc(OCCCn3cnc4ccncc43)cc2)cc1` [356 A], the inhibition in vivo at 10 mg/kg in experiment [1] (setting [3]) is 14%. Moreover, the IC50 in experiment [2] (recombinant hLTA4H) was found to be 0.35 µM.
The corresponding values for `c1ccc(Cc2ccc(OCCCn3cnc4cnccc43)cc2)cc1` [356 B] are 33% and 0.17 µM.
In the same order, the values of `c1ccc(Cc2ccc(OCCCn3ccc4ncnc-4c3)cc2)cc1` [356 C] are 48% and 0.1 µM.
In the case of `c1ccc(Cc2ccc(OCCn3cnc4ncncc43)cc2)cc1` [357 A], in experiment [1] (Mus musculus, po, 1 h), the inhibition in vivo at 10 mg/kg was 57%. Further, the IC50 in experiment [2] came to 0.047 µM.
As to `Fc1ccc(Oc2ccc(OCCN3CCCC3)cc2)cc1` [Example 48, 1-[2-[4-(4-fluorophenoxy)phenoxy]ethyl]pyrrolidine], the inhibition in vivo at 10 mg/kg in experiment [1] (Mus musculus, po, 1 h) worked out at 13%. Besides, the IC50 in experiment [2] (recombinant hLTA4H) was determined as 0.15 µM.
For `c1ccc2ncc(Cc3ccc(OCCN4CCCC4)cc3)cc2c1` [Example 132], in experiment [1] (setting [3]), the inhibition in vivo at 10 mg/kg was 83%. The IC50 in experiment [2] (recombinant hLTA4H) came out at 0.084 µM.
The corresponding values for `c1csc(Cc2ccc(OCCN3CCCC3)cc2)c1` [Example 133] are 49% and 0.01 µM.
The corresponding values for `Oc1ccc(Cc2ccc(OCCN3CCCC3)cc2)cc1` [Example 137] are 38% and 0.03 µM.
The corresponding values for `c1ccc(Cc2ccc(OCCN3CCCC3)cc2)nc1` [Example 138] are 21% and 0.42 µM.
As to `Fc1ccc(Cc2ccc(OCCN3CCCC3)cc2)cc1` [Example 139], in experiment [1] (setting [3]), the inhibition in vivo at 10 mg/kg was determined as 9%. In addition, the concentration for half-maximal inhibition (IC50) in experiment [2] (recombinant hLTA4H) was 0.11 µM.
In the same order, the values of `Fc1cccc(Cc2ccc(OCCN3CCCC3)cc2)c1` [Example 142] are 32% and 0.037 µM.
The corresponding values for `NC(=O)C1CCN(CCOc2ccc(Cc3ccccc3)cn2)CC1` [Example 147] are 94% and 1.06 µM.
The corresponding values for `Clc1ccccc1COc1ccc(OCCN2CCCC2)cc1` [Example 208] are 13% and 4 µM.
On to `FC(F)(F)c1cccc(COc2ccc(OCCN3CCCC3)cc2)c1` [Example 209], for which the inhibition in vivo at 10 mg/kg in experiment [1] (setting [3]) was 0%. Besides, in experiment [2] (recombinant hLTA4H), the IC50 was determined as 3 µM.
Take `Fc1cccc(COc2ccc(OCCN3CCCC3)cc2)c1` [Example 211]: the inhibition in vivo at 50 mg/kg in experiment [1] (mouse, oral gavage) was determined as 47%. In addition, the concentration for half-maximal inhibition (IC50) in experiment [2] (recombinant hLTA4H) stood at 0.12 µM.
As to `c1csc(COc2ccc(OCCN3CCCC3)cc2)c1` [Example 215], in experiment [1] (mouse, oral gavage), the inhibition in vivo at 50 mg/kg was 33%. Moreover, the IC50 in experiment [2] (recombinant hLTA4H) is 0.085 µM.
Turning to `NC(=O)C1CCN(CCOc2ccc(Cc3cccs3)cc2)CC1` [Example 229], in experiment [1] (setting [3]), the inhibition in vivo at 10 mg/kg amounted to 70%. In experiment [2] (recombinant hLTA4H), the IC50 was found to be 0.24 µM.
Turning to `NC(=O)C1CCN(CCOc2ccc(Cc3ccsc3)cc2)CC1` [Example 230], in experiment [1] (setting [3]), the inhibition in vivo at 10 mg/kg came out at 53%. Also, the IC50 in experiment [2] (recombinant hLTA4H) turned out to be 0.39 µM.
On to `NC(=O)C1CCN(CCOc2ccc(Cc3cccc(F)c3)cc2)CC1` [Example 233], for which, in experiment [1] (setting [3]), the inhibition in vivo at 10 mg/kg was determined as 98%. Also, the IC50 in experiment [2] (recombinant hLTA4H) amounted to 0.37 µM.
Consider `c1ccc(Cc2ccc(OCCNC3CCCCC3)cc2)cc1` [Example 240], for which, in experiment [1] (setting [3]), the inhibition in vivo at 10 mg/kg was 33%. In experiment [2] (recombinant hLTA4H), the IC50 amounted to 1.07 µM.
In the same order, the values of `c1ccc(Cc2ccc(OCCNC3CCCC3)cc2)cc1` [Example 241] are 33% and 0.6 µM.
The corresponding values for `OC1CCN(CCOc2ccc(Cc3ccccc3)cc2)CC1` [Example 247] are 70% and 0.1 µM.
The corresponding values for `O=C(NC1CCN(CCOc2ccc(Cc3ccccc3)cc2)CC1)c1cc2ccccc2o1` [Example 248] are 56% and 0.2 µM.
Take `NC(=O)C1CCN(CCOc2ccc(Oc3ccccc3)cc2)CC1` [Example 252]: in experiment [1] (setting [3]), the inhibition in vivo at 10 mg/kg was found to be 94%. The IC50 in experiment [2] (recombinant hLTA4H) was found to be 0.16 µM.
As for `NC(=O)C1CCCN(CCOc2ccc(Oc3ccccc3)cc2)C1` (stereo not shown) [Example 253], in experiment [1] (setting [3]), the inhibition in vivo at 10 mg/kg stood at 73%. Also, the IC50 in experiment [2] (recombinant hLTA4H) was found to be 0.91 µM.
Take `CCOC(=O)C1CCN(CCOc2ccc(Oc3ccccc3)cc2)CC1` [Example 254]: in experiment [1] (setting [3]), the inhibition in vivo at 10 mg/kg was determined as 87%. In addition, the IC50 in experiment [2] (recombinant hLTA4H) is 6 µM.
For the compound `O=C(OCc1ccccc1)C1CCCN1CCCOc1ccc(Cc2ccccc2)cc1` (stereo not shown) [Example 258], in experiment [1] (mouse, oral gavage), the inhibition in vivo at 50 mg/kg was determined as 81%. Moreover, the IC50 in experiment [2] (recombinant hLTA4H) worked out at 1.25 µM.
The corresponding values for `c1ccc(Cc2ccc(OCCCN3CCCC3)cc2)cc1` [Example 259] are 35% and 0.1 µM.
Take `COC(=O)C1CN(CCCOc2ccc(Cc3ccccc3)cc2)CCC1=O` (stereo not shown) [Example 262]: in experiment [1] (setting [3]), the inhibition in vivo at 10 mg/kg was 52%. In addition, in experiment [2] (recombinant hLTA4H), the IC50 is 0.22 µM.
